Assay [1] addresses T1, Y5.38F 5-HT1A receptor (Homo sapiens, UniProt P08908, Y195F).
T1 sequence (P08908 1-422 Y195F): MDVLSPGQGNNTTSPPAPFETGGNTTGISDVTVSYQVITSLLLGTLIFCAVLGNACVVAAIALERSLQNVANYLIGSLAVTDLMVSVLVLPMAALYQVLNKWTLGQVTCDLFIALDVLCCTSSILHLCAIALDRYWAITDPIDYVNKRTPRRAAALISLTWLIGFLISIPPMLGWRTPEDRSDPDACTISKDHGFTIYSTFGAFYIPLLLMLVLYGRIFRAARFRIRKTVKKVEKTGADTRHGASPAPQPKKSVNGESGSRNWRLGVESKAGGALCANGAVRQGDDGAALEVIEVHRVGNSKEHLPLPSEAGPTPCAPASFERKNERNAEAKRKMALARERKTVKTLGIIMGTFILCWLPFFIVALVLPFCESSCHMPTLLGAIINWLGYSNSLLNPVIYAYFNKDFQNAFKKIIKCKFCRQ
In words: Radioligand binding, Y5.38F 5-HT1A.
Experimental: (§4) 48 hours after transfection with the desired receptor construct, cells were isolated for saturation and competition binding assays as previously described.[47],[48],[57] Saturation and competition radioligand binding assays were conducted in an assay buffer consisting of 50 mM Tris HCl, 10 mM MgCl2, and 0.1 mM EDTA in filtered deionized water. […] Briefly, 5–10 μg of the receptor protein, as determined by a Thermo Fisher Pierce BCA protein assay kit, was incubated with 8 concentrations of radioligand in triplicate to determine total binding. […] Nonspecific binding was determined as above for saturation assays.
(§5) For radioligand binding data, nonspecific binding was subtracted from the total binding to get specific binding. Saturation binding data was fit to the “binding saturation-specific binding with hill slope” model. Competition binding data were fit to the “binding competition-one-site fit Ki” non-linear regression model and transformed to pKi values, reported as mean ± SD.
(§6) is 50 mM Tris HCl, 10 mM MgCl2 and 0.1 mM EDTA in filtered deionized water.

In assay [2] the target is T2, human 5-HT1A receptor (Homo sapiens, UniProt P08908).
T2 construct: host or cells: HEK293T
T2 sequence (P08908 1-422): T1 sequence (P08908 1-422 Y195F) with F195Y
In words: cAMP accumulation (LANCE Ultra TR-FRET) in HEK293T cells, WT 5-HT1A. The assay is classed as cell-based. The note with it: for Emax: HEK-293T; for EC50: cAMP accumulation, HEKt cells, mean ± SD. As to the method:
(§1) Briefly, cells transfected with the desired receptor construct and compounds were incubated in the dark for 90 min at 37 °C. After incubation, cAMP detection reagents were added, and TR-FRET was used to quantify the cAMP produced.
(§2) The functional activity of compounds was determined by stimulating cells expressing the desired receptor with FSK and test compound in parallel with 12 known concentrations of cAMP. The known concentrations of cAMP were used to create a standard curve for each experiment that was used to interpolate the unknown values of cAMP in wells with test compounds. […] The EC50 and EMAX values were determined using the “dose response – log[agonist] vs response (three parameter)” nonlinear regression model in Prism and transformed to pEC50 values, reported as mean ± SD.
(§3) Summary of functional assay conditions at various 5-HT1 receptor point mutation constructs.

In assay [3] the target is S5.42A 5-HT1D receptor (Homo sapiens, UniProt P28221, S201A). In words: Radioligand binding, S5.42A 5-HT1D.
Experimental: as §4, §5, §6
Assay [4] deals with T3, N7.39T 5-HT1A receptor (Homo sapiens, UniProt P08908, N386T).
T3 sequence (P08908 1-422 N386T): T1 sequence (P08908 1-422 Y195F) with F195Y, N386T
In words: cAMP accumulation in HEK293T cells, N7.39T 5-HT1A. Particulars: point-mutated receptor, 3 independent experiments, read-out: pEC50 5-HT1A Receptor N7.39T (converted). The arrangement: mutated in house (Quikchange II) HTR01A0000; host or cells: HEK293T. The assay is classed as cell-based. As for the experimental part:
as §1, §2, §3
In general terms: Cyclic AMP is a second messenger, typically raised through Gs and lowered through Gi signalling.

Assay [5] deals with T7.39N 5-HT1B receptor (Homo sapiens, UniProt P28222, T355N). In words: cAMP accumulation in HEK293T cells, T7.39N 5-HT1B. The assay is classed as cell-based. Details: host or cells: HEK293T. The note with it: point-mutated receptor, 3 independent experiments, read-out: pEC50 5-HT1B Receptor N7.39T (converted). As to the method: as §1, §2, §3
Assay [6] concerns the target T4, V3.33I 5-HT1A receptor (Homo sapiens, UniProt P08908, V117I).
T4 sequence (P08908 1-422 V117I): T1 sequence (P08908 1-422 Y195F) with V117I, F195Y
In words: Radioligand binding, V3.33I 5-HT1A.
Experimental: as §4, §5, §6

The target in assay [7] is S5.42A 5-HT1B receptor (Homo sapiens, UniProt P28222, S212A). In words: cAMP accumulation in HEK293T cells, S5.42A 5-HT1B. The assay is classed as cell-based. Details: host or cells: HEK293T. The note with it: point-mutated receptor, 3 independent experiments, read-out: pEC50 5-HT1B Receptor S5.42A (converted). As to the method:
as §1, §2
Cell Type Receptor Cell Density [Forskolin] Incubation time
as §3

The target in assay [8] is T5, human 5-HT1D receptor (Homo sapiens, UniProt P28221).
T5 construct: host or cells: HEK293T
In words: Radioligand binding (saturation and competition), WT 5-HT1D. The note with it: for higher affinity at 5-HT1D over 5-HT1A receptors: affinity ratio.

Assay [9] concerns the target V45.52I 5-HT1D receptor (Homo sapiens, UniProt P28221, V190I). In words: Radioligand binding, V45.52I 5-HT1D.
Experimental: as §4, §5, §6
[10] abbreviates: read-out: 5-HT1A EMAX (%), WT receptor, normalized to basal (0%) and 10 μM 5-CT (100%).
[11] abbreviates: Affinity (pKi ± SD) 5-HT1D, WT receptor, [^3H]5-CT competition, mean ± SD.

Substitutions are numbered along the chain they refer to. Values joined by “and” are separate entries in the source; they are usually repeats but may differ in a detail not shown here. Identical values can stand only once. Like-named read-outs stand apart in the source and are kept apart here.

V45.52I 5-HT1D receptor, sequence (P28221 whole entry V190I): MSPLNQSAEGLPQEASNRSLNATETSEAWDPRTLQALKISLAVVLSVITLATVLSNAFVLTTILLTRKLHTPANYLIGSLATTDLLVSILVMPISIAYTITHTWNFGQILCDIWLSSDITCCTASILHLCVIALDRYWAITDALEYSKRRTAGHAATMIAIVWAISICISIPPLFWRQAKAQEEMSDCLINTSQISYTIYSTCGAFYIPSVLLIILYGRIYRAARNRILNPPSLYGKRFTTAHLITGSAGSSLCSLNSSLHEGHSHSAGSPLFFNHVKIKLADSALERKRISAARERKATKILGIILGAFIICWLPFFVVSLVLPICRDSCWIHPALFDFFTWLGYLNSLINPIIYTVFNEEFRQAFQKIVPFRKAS
S5.42A 5-HT1B receptor, sequence (P28222 whole entry S212A): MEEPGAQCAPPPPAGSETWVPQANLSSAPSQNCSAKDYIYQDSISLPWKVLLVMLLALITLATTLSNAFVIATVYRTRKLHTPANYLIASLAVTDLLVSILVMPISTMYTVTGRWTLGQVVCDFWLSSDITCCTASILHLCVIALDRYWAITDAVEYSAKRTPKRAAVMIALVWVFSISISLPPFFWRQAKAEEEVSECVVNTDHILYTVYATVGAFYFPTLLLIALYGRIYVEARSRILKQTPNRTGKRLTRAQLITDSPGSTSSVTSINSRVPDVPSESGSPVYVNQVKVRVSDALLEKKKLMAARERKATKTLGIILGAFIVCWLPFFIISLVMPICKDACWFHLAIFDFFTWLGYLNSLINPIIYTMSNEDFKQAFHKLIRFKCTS
S5.42A 5-HT1D receptor, sequence (P28221 whole entry S201A): as the sequence (P28221 whole entry V190I) above, with I190V, S201A counted along it
T5 sequence (P28221 whole entry): as the sequence (P28221 whole entry V190I) above, with I190V counted along it
T7.39N 5-HT1B receptor, sequence (P28222 whole entry T355N): as the sequence (P28222 whole entry S212A) above, with A212S, T355N counted along it

For `Fc1ccccc1-c1cccc2c1CC[C@H](N1CCCC1)C2` [(S)-PFPT], the Ki in assay [1] was 1.74 nM; in assay [3], 41.7 nM; in assay [6], 8.13 nM; in [8] (read-out: Affinity (pKi ± SD) 5-HT1D (converted)), 13.5 nM; in assay [9], 14.8 nM. In addition, the Emax (commonly the maximal effect, on the per cent scale that the assay sets) in assay [2] (read-out: 5-HT1A EMAX (%)) was 100 ± 2%. The EC50 in assay [2] (WT receptor, read-out: 5-HT1A pEC50 (converted)) is 1.66 nM; in assay [4], 25.1 nM; in assay [5], 19.5 nM; in [7], 316 nM. Besides, the “higher functional potency at 5-HT1A over 5-HT1B and 5-HT1D receptors” value in assay [2] (cAMP potency ratio) was ~40 fold and 35 fold.

Consider `CN(C)[C@H]1CCc2c(cccc2-c2ccccc2F)C1` [(S)-FPT], for which, in [2] (setting [10]), the Emax was 90 ± 2%. Moreover, the Ki in assay [3] is 1.29 nM; in [8] (setting [11]), 1.07 nM; in assay [9], 1.05 nM. In assay [7], the EC50 was 1.02 nM. In addition, the “higher affinity at 5-HT1D over 5-HT1A receptors” value in assay [8] stood at 4 fold.

For the molecule `CN(C)[C@H]1CCc2c(cccc2-c2cccc3ccccc23)C1` [(S)-NAP], the Ki was 60.3 nM in [1]; 1.17 nM in assay [3]; 63.1 nM in assay [6]; 0.832 nM in assay [8] (setting [11]); 37.2 nM in assay [9]. Moreover, the EC50 was 389 nM in assay [2] (5-HT1A pEC50, WT receptor); 347 nM in assay [4]; 37.2 nM in assay [5]; 35.5 nM in [7]. Moreover, the Emax in assay [2] (setting [10]) came to 72 ± 4%. For the same molecule, the “higher affinity at 5-HT1D over 5-HT1A receptors” value in [8] is reported as 70 fold.

For the origin of these results see publication PMC10797628.
